Data published in patent publication US20090048301A1 (IMCLONE SYSTEMS INCORPORATED, priority 2003, published 2009).

Legend:
[1] = system: A431, human epidermoid carcinoma cells; experiment: Cell cycle analysis (FACS), mitotic arrest in G2/M; assay type: cell-based; conditions: Homo sapiens, A-431, 24 h, read-out: FACS Assay: concentration required to achieve inhibition in FACS assay
Procedure: The cell cycle analysis was performed as follows. Cancer cells (A431, human epidennoid carcinoma cells) were maintained in culture in D-MEM media with 10% FBS and 1 mg/ml glutamate. Prior to experiment, cells were plated onto 6-well plates for a final density of 500,000 cells/well at the time of treatment. Cells were treated with the compounds of the invention at a concentration of about 0.01 to 1 μM final concentrations (final 0.1% DMSO) for 24 hours, then trypsinized, collected, rinsed in PBS (phosphate buffered saline), and fixed in 70% cold ethanol overnight at 4° C. The cells were then rinsed with PBS, resuspended in PBS with 0.2% Tween, RNAse was added (final 1 μg/ml), cells were incubated at 37° C. for 15 min, followed by addition of Propidium Iodide (final 50 μg/ml), and a 30 minute incubation at room temperature. DNA ploidy was analyzed using flow cytometers (Epics Excel, Beckman-Coulter, or Guava PCA-96, Guava Technologies) and mitotic arrest characterized by massive accumulation of cells in the G2/M phase of cell cycle.
Cancer cells (A431, human epidermoid cells) were maintained in culture in D-MEM media with 10% FBS and 1 mg/ml glutamate. Prior to experiment, cells are plated onto 6-well plates for a final density of 500,000 cells/well at the time of treatment. Cells were treated with compounds at 0.01-1 μM final concentrations (final […] DMS 0) for 24 hours, then trypsinized, collected, rinsed in PBS (phosphate buffered saline), and fixed in 70% cold ethanol overnight at 4° C. Cells were then rinsed with PBS, resuspended in PBS with 0.2% Tween, RNAse was added (final 1 μg/ml), cells were incubated at 37° C. for 15 min, followed by addition of Propidium Iodide (final 50 μg/ml), and a 30 minute incubation at room temperature. DNA ploidy was analyzed using cell sorters (Epics Excel, Beckman-Coulter, or Guava PCA-96, Guava Technologies) and mitotic arrest characterized by massive accumulation of cells in the G2/M phase of cell cycle.

bovine tubulin = experiment: In vitro tubulin polymerization assay (turbidity at 340 nm); assay type: biochemical; conditions: 10 μM compound, 30 minute data point, vs 1% DMSO control
Procedure, shortened: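 Bovine tubulin (97%, <3% MAPs) at 3 mg/ml final in G-PEM pH 7 with 1 mM GTP and 5% glycerol, added cold to compound wells at 37° C (1% DMSO final). A340 read each minute for 30 min; percent inhibition from 30-min point versus DMSO control.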

| Compound | minimal effective concentration [1] [µM] | Tubulin Assay: percent inhibition at 10 μM based on 30 minute data (bovine tubulin) [%] |
| --- | --- | --- |
| COc1cc(Nc2ncccc2-c2nnc(Nc3ccc4c(c3)OCCO4)[nH]2)cc(OC)c1 [Compound 50, {3-[5-(2,3-Dihydro-benzo[1,4]dioxin-6-ylamino)-4H-[1,2,4]triazol-3-yl]-pyridin-2-yl}-(3,5-dimethoxy-phenyl)-amine] | 0.1 | 90 |
| COc1ccc(CNc2ncccc2-c2nnc(Nc3ccc4c(c3)OCCO4)[nH]2)cc1 [Compound 51, {3-[5-(2,3-Dihydro-benzo[1,4]dioxin-6-ylamino)-4H-[1,2,4]triazol-3-yl]-pyridin-2-yl}-(4-methoxy-benzyl)-amine] | 1 | 68 |
| COc1cc(Nc2ncccc2-c2nnc(NCC3CCCO3)[nH]2)cc(OC)c1 (stereo not drawn) [Compound 56, (3,5-Dimethoxy-phenyl)-(3-{5-[(tetrahydro-furan-2-ylmethyl)-amino]-4H-[1,2,4]triazol-3-yl}-pyridin-2-yl)-amine] | 1 | 97 |
| COc1cccc(CNc2nnc(-c3cccnc3Nc3cc(OC)cc(OC)c3)[nH]2)c1 [Compound 58, (3,5-Dimethoxy-phenyl)-{3-[5-(3-methoxy-benzylamino)-4H-[1,2,4]triazol-3-yl]-pyridin-2-yl}-amine] | 0.1 | 100 |
| COc1ccc(CNc2nnc(-c3cccnc3Nc3cc(OC)cc(OC)c3)[nH]2)cc1 [Compound 59, (3,5-Dimethoxy-phenyl)-{3-[5-(4-methoxy-benzylamino)-4H-[1,2,4]triazol-3-yl]-pyridin-2-yl}-amine] | 1 | 88 |
| COc1cc(Nc2ncccc2-c2nnc(Nc3cccc([N+](=O)[O-])c3)[nH]2)cc(OC)c1 [Compound 60a, (3,5-dimethoxy-phenyl)-{3-[5-(3-nitro-phenylamino)-4H-[1,2,4]triazol-3-yl]-pyridin-2-yl}-amine] | 0.1 | 95 |
| c1cnc(OCc2ccc3c(c2)OCO3)c(-c2nnc(Nc3ccc4c(c3)OCCO4)[nH]2)c1 [Compound 71, {5-[2-(Benzo[1,3]dioxol-5-ylmethoxy)-pyridin-3-yl]-4H-[1,2,4]triazol-3-yl}-(2,3-dihydro-benzo[1,4]dioxin-6-yl)-amine] | 0.1 | 83 |
| c1cnc(OCc2ccc3c(c2)OCO3)c(-c2nnc(Nc3ccc4c(c3)OCO4)[nH]2)c1 [Compound 72, Benzo[1,3]dioxol-5-yl-{5-[2-(benzo[1,3]dioxol-5-ylmethoxy)-pyridin-3-yl]-4H-[1,2,4]triazol-3-yl}-amine] | 0.1 | 100 |
| COc1cccc(Nc2nnc(-c3cccnc3OCc3ccc4c(c3)OCO4)[nH]2)c1 [Compound 73, {5-[2-(Benzo[1,3]dioxol-5-ylmethoxy)-pyridin-3-yl]-4H-[1,2,4]triazol-3-yl}-(3-methoxy-phenyl)-amine] | 1 | 70 |
| COc1cc(Nc2ncccc2-c2nnc(-c3ccc(S(C)(=O)=O)cc3)[nH]2)cc(OC)c1 [Compound 74, (3,5-Dimethoxy-phenyl)-{3-[5-(4-methanesulfonyl-phenyl)-4H-[1,2,4]triazol-3-yl]-pyridin-2-yl}-amine] | 0.1 | 87 |
| CS(=O)(=O)c1ccc(-c2nnc(-c3cccnc3Nc3cccc(S(N)(=O)=O)c3)[nH]2)cc1 [Compound 92, 3-{3-[5-(4-Methanesulfonyl-phenyl)-4H-[1,2,4]triazol-3-yl]-pyridin-2-ylamino}-benzenesulfonamide] | 10 | 74 |
| CS(=O)(=O)c1ccc(-c2nnc(-c3cccnc3NCc3ccc4c(c3)CCO4)[nH]2)cc1 [Compound 97, (2,3-Dihydro-benzofuran-5-ylmethyl)-{3-[5-(4-methanesulfonyl-phenyl)-4H-[1,2,4]triazol-3-yl]-pyridin-2-yl}-amine] | 1 | 77 |
| CS(=O)(=O)c1ccc(-c2nnc(-c3cccnc3NCc3ccco3)[nH]2)cc1 [Compound 98, Furan-2-ylmethyl-{3-[5-(4-methanesulfonyl-phenyl)-4H-[1,2,4]triazol-3-yl]-pyridin-2-yl}-amine] | 1 | 83 |
| COc1cccc(-c2nnc(-c3cccnc3NCc3ccc(F)c(F)c3)[nH]2)c1 [Compound 100, (3,4-Difluoro-benzyl)-{3-[5-(3-methoxy-phenyl)-4H-[1,2,4]triazol-3-yl]-pyridin-2-yl}-amine] | 10 | 70 |
| Fc1ccc(CNc2ncccc2-c2nnc(-c3ccc4c(c3)OCO4)[nH]2)cc1F [Compound 101, [3-(5-Benzo[1,3]dioxol-5-yl-4H-[1,2,4]triazol-3-yl)-pyridin-2-yl]-(3,4-difluoro-benzyl)-amine] | 1 | 66 |
| CS(=O)(=O)c1ccc(-c2nnc(-c3cccnc3NCc3ccc(F)c(F)c3)[nH]2)cc1 [Compound 102, (3,4-Difluoro-benzyl)-{3-[5-(4-methanesulfonyl-phenyl)-4H-[1,2,4]triazol-3-yl]-pyridin-2-yl}-amine] | 0.1 | 88 |
| CS(=O)(=O)c1ccc(-c2nnc(-c3cccnc3NCC3COCCO3)[nH]2)cc1 (stereo not drawn) [Compound 103, [1,4]Dioxan-2-ylmethyl-{3-[5-(4-methanesulfonyl-phenyl)-4H-[1,2,4]triazol-3-yl]-pyridin-2-yl}-amine] | 1 | 80 |
| CS(=O)(=O)c1ccc(-c2nnc(-c3cccnc3NCc3ccc4c(c3)OCCO4)[nH]2)cc1 [Compound 105, (2,3-Dihydro-benzo[1,4]dioxin-6-ylmethyl)-{3-[5-(4-methanesulfonyl-phenyl)-4H-[1,2,4]triazol-3-yl]-pyridin-2-yl}-amine] | 1 | 91 |
| CS(=O)(=O)c1ccc(-c2nnc(-c3cccnc3NCC3CCCO3)[nH]2)cc1 (stereo not drawn) [Compound 106, {3-[5-(4-Methanesulfonyl-phenyl)-4H-[1,2,4]triazol-3-yl]-pyridin-2-yl}-(tetrahydro-furan-2-ylmethyl)-amine] | 0.1 | 79 |
| CS(=O)(=O)c1ccc(-c2nnc(-c3cccnc3NCc3ccc(F)cc3)[nH]2)cc1 [Compound 108, (4-Fluoro-benzyl)-{3-[5-(4-methanesulfonyl-phenyl)-4H-[1,2,4]triazol-3-yl]-pyridin-2-yl}-amine] | 0.1 | 91 |
| c1ccc(-c2nnc(Nc3ccc4c(c3)OCCO4)[nH]2)c(NCc2ccc3[nH]ncc3c2)c1 [Compound 117, (2,3-Dihydro-benzo[1,4]dioxin-6-yl)-(5-{2-[(1H-indazol-5-ylmethyl)-amino]-phenyl}-4H-[1,2,4]triazol-3-yl)-amine] | 1 | 84 |
| c1ccc(-c2nnc(Nc3ccc4c(c3)OCO4)[nH]2)c(NCc2ccc3[nH]ncc3c2)c1 [Compound 119, Benzo[1,3]dioxol-5-yl-(5-{2-[(1H-indazol-5-ylmethyl)-amino]-phenyl}-4H-[1,2,4]triazol-3-yl)-amine] | 1 | 76 |
| c1ccc(-c2nnc(Nc3ccc4c(c3)OCCO4)[nH]2)c(NCc2ccncc2)c1 [Compound 122, (2,3-Dihydro-benzo[1,4]dioxin-6-yl)-(5-{2-[(pyridin-4-ylmethyl)-amino]-phenyl}-4H-[1,2,4]triazol-3-yl)-amine] | 1 | 84 |
| COc1cccc(Nc2nnc(-c3ccccc3NCc3ccc4[nH]ncc4c3)[nH]2)c1 [Compound 123, (5-{2-[(1H-Indazol-5-ylmethyl)-amino]-phenyl}-4H-[1,2,4]triazol-3-yl)-(3-methoxy-phenyl)-amine] | 1 | 75 |
